This is an account of results in patent publication US20240002391A1, “4-ALKOXYPYRROLO[2,1-F][1,2,4]TRIAZINES AND PREPARATION AND USES THEREOF” (BioSplice Therapeutics, Inc., priority 2022, published 2024).

This experiment has as its target recombinant DYRK1A kinase (Homo sapiens (Human), UniProt Q13627). In words: DYRK1A kinase assay (Ser/Thr 18 peptide Z-lyte FRET). The format is biochemical. Conditions: DYRK1A kinase activity, Z-lyte Ser/Thr 18 peptide, 15 μM ATP; method text calls the value IC50; read-out: EC50 (the source's name). The procedure, abridged: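 Z-lyte FRET: recombinant DYRK1A 0.25 μg/mL, ATP 15 μM, Ser/Thr 18 peptide 4 μM, with compound (11-point 1:3, 10 μM top) 1 h at room temperature, then development reagent 1 h. Coumarin/fluorescein emission ratio converted to % phosphorylation; IC50 by non-linear regression, duplicates.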
As for `COc1nc(N[C@H]2C[C@@](C)(N(C)C)C2)nn2ccc(-c3ccc4ncccc4c3)c12` [Compound 1043, cis-N3-(4-Methoxy-5-(quinolin-6-yl)pyrrolo[2,1-f][1,2,4]triazin-2-yl)-N1,N1,1-trimethylcyclobutane-1,3-diamine], the IC50 is 2.8 nM.
As for `COc1nc(NC2CCC3(CC2)CN(C(C)=O)C3)nn2ccc(-c3ccc4ncnn4c3)c12` [Compound 196, 1-(7-((5-([1,2,4]Triazolo[1,5-a]pyridin-6-yl)-4-methoxypyrrolo[2,1-f][1,2,4]triazin-2-yl)amino)-2-azaspiro[3.5]nonan-2-yl)ethan-1-one], the IC50 was found to be 1.1 nM.
For `COc1nc(N[C@H]2CCN(C(C)=O)C[C@H]2F)nn2ccc(-c3cc(F)c4nnn(CC(F)F)c4c3)c12` [Compound 816, 1-((3R,4S)-4-((5-(1-(2,2-Difluoroethyl)-4-fluoro-1H-benzo[d][1,2,3]triazol-6-yl)-4-methoxypyrrolo[2,1-f][1,2,4]triazin-2-yl)amino)-3-fluoropiperidin-1-yl)ethan-1-one], the IC50 is 2.8 nM.
As to “N-(cis-4-((4-Methoxy-5-(quinolin-6-yl)pyrrolo[2,1-f][1,2,4]triazin-2-yl) amino)cyclohexyl)acetamide [Compound 1044]”, the IC50 was 3.2 nM.
Turning to `COc1nc(NCC(C)(C)O)nn2ccc(-c3ccc4nnn(CC(F)F)c4c3)c12` [Compound 696, 1-((5-(1-(2,2-Difluoroethyl)-1H-benzo[d][1,2,3]triazol-6-yl)-4-methoxypyrrolo[2,1-f][1,2,4]triazin-2-yl)amino)-2-methylpropan-2-ol], the IC50 is 1.3 nM.
With `COc1nc(N[C@H]2CC[C@H](C(C)(C)O)CC2)nn2ccc(-c3ccc4nccnc4c3)c12` [Compound 342, 2-(trans-4-((4-Methoxy-5-(quinoxalin-6-yl)pyrrolo[2,1-f][1,2,4]triazin-2-yl)amino)cyclohexyl)propan-2-ol], the IC50 was found to be 3.2 nM.
Next, `CCOc1nc(N[C@H]2C[C@@H](OCCO)C2)nn2ccc(-c3ccn4nccc4c3)c12` [Compound 91, 2-(cis-3-((4-Ethoxy-5-(pyrazolo[1,5-a]pyridin-5-yl)pyrrolo[2,1-f][1,2,4]triazin-2-yl)amino)cyclobutoxy)ethan-1-ol]: 1.6 nM; `COc1nc(N[C@H]2CCN(C3COC3)C[C@H]2F)nn2ccc(-c3ccc4ncn(CC(F)F)c4c3)c12` [Compound 1141, 5-(1-(2,2-Difluoroethyl)-1H-benzo[d]imidazol-6-yl)-N-((3R,4S)-3-fluoro-1-(oxetan-3-yl)piperidin-4-yl)-4-methoxypyrrolo[2,1-f][1,2,4]triazin-2-amine]: 1.4 nM.
With `COc1nc(N[C@H]2C[C@]3(CCN3C(C)=O)C2)nn2ccc(-c3ccc4nccnc4c3)c12` [Compound 383, 1-((4s,6r)-6-((4-Methoxy-5-(quinoxalin-6-yl)pyrrolo[2,1-f][1,2,4]triazin-2-yl)amino)-1-azaspiro[3.3]heptan-1-yl)ethan-1-one], the IC50 amounted to 1.4 nM.
In the case of `COCC[C@@H](C)Nc1nc(OC)c2c(-c3cnc4nccn4c3)ccn2n1` [Compound 926, (R)-5-(Imidazo[1,2-a]pyrimidin-6-yl)-4-methoxy-N-(4-methoxybutan-2-yl)pyrrolo[2,1-f][1,2,4]triazin-2-amine], the IC50 was determined as 5.6 nM.
On to `COc1nc(N[C@H]2CCN(C3(C#N)COC3)C[C@H]2F)nn2ccc(-c3ccc4nnn(CC(F)F)c4c3)c12` [Compound 769, 3-((3R,4S)-4-((5-(1-(2,2-Difluoroethyl)-1H-benzo[d][1,2,3]triazol-6-yl)-4-methoxypyrrolo[2,1-f][1,2,4]triazin-2-yl)amino)-3-fluoropiperidin-1-yl)oxetane-3-carbonitrile], for which the IC50 was found to be 2.9 nM.
As for `COc1nc(N[C@H]2CCN(C(C)=O)C[C@H]2F)nn2cc(F)c(-c3ccc4nnn(CC(F)F)c4c3)c12` [Compound 856, 1-((3R,4S)-4-((5-(1-(2,2-Difluoroethyl)-1H-benzo[d][1,2,3]triazol-6-yl)-6-fluoro-4-methoxypyrrolo[2,1-f][1,2,4]triazin-2-yl)amino)-3-fluoropiperidin-1-yl)ethan-1-one], the IC50 amounted to 1.9 nM.
Then `COCCO[C@H]1CC[C@@H](Nc2nc(OC)c3c(-c4ccn5nccc5c4)ccn3n2)CC1` [Compound 15, 4-Methoxy-N-(cis-4-(2-methoxyethoxy)cyclohexyl)-5-(pyrazolo[1,5-a]pyridin-5-yl)pyrrolo[2,1-f][1,2,4]triazin-2-amine], with 33.7 nM; and `COc1nc(N[C@@H]2CCN(C(C)=O)CC2(F)F)nn2ccc(-c3ccc4nccnc4c3)c12` [Compound 1096, (R)-1-(3,3-Difluoro-4-((4-methoxy-5-(quinoxalin-6-yl)pyrrolo[2,1-f][1,2,4]triazin-2-yl)amino)piperidin-1-yl)ethan-1-one], with 3 nM.
As for `COc1nc(N[C@H]2CCN(CCO)C[C@H]2F)nn2ccc(-c3cc(F)c4nc(C)n(CC(F)F)c4c3)c12` [Compound 519, 2-((3R,4S)-4-((5-(1-(2,2-Difluoroethyl)-4-fluoro-2-methyl-1H-benzo[d]imidazol-6-yl)-4-methoxypyrrolo[2,1-f][1,2,4]triazin-2-yl)amino)-3-fluoropiperidin-1-yl)ethan-1-ol], the IC50 turned out to be 2.7 nM.
On to `CCN1CC[C@@H](Nc2nc(OC)c3c(-c4ccc5ncnn5c4)ccn3n2)C(F)(F)C1` [Compound 577, (R)-5-([1,2,4]Triazolo[1,5-a]pyridin-6-yl)-N-(1-ethyl-3,3-difluoropiperidin-4-yl)-4-methoxypyrrolo[2,1-f][1,2,4]triazin-2-amine], for which the IC50 amounted to 6.4 nM.
Regarding `COc1nc(N[C@H]2CC[C@@H](OC)CC2)nn2ccc(-c3ccn4nccc4c3)c12` [Compound 9, 4-Methoxy-N-(cis-4-methoxycyclohexyl)-5-(pyrazolo[1,5-a]pyridin-5-yl)pyrrolo[2,1-f][1,2,4]triazin-2-amine], the IC50 was 9960 nM.
As to `COc1nc(N[C@H]2C[C@](C)(C(=O)N3CCCC3)C2)nn2ccc(-c3ccc4nnn(C)c4c3)c12` [Compound 222, (trans-3-((4-methoxy-5-(1-methyl-1H-benzo[d][1,2,3]triazol-6-yl)pyrrolo[2,1-f][1,2,4]triazin-2-yl)amino)-1-methylcyclobutyl)(pyrrolidin-1-yl)methanone], the IC50 was determined as 3.5 nM.
Then `COc1nc(N[C@@H]2CC[C@@H]2OC)nn2ccc(-c3cnc4nccn4c3)c12` [Compound 929, 5-(Imidazo[1,2-a]pyrimidin-6-yl)-4-methoxy-N-((1R,2S)-2-methoxycyclobutyl)pyrrolo[2,1-f][1,2,4]triazin-2-amine], with 19.8 nM.
With `COc1nc(N[C@@H]2CCCOC2)nn2ccc(-c3ccc4ncccc4c3)c12` [Compound 1050, (R)-4-Methoxy-5-(quinolin-6-yl)-N-(tetrahydro-2H-pyran-3-yl)pyrrolo[2,1-f][1,2,4]triazin-2-amine], the IC50 was 13.5 nM.
Next, `COc1nc(NC2CCN(CC(F)F)CC2)nn2ccc(-c3ccc4nccnc4c3)c12` [Compound 362, N-(1-(2,2-Difluoroethyl)piperidin-4-yl)-4-methoxy-5-(quinoxalin-6-yl)pyrrolo[2,1-f][1,2,4]triazin-2-amine]: 6 nM; `COc1nc(N[C@@H]2CCN(C3COC3)C[C@H]2F)nn2ccc(-c3cc(F)c4nc(C)n(CC(F)F)c4c3)c12` [Compound 159, 5-(1-(2,2-Difluoroethyl)-4-fluoro-2-methyl-1H-benzo[d]imidazol-6-yl)-N-((3R,4R)-3-fluoro-1-(oxetan-3-yl)piperidin-4-yl)-4-methoxypyrrolo[2,1-f][1,2,4]triazin-2-amine]: 2.9 nM; `COc1nc(N[C@@H]2CCC(=O)N(C)C2)nn2ccc(-c3ccc4ncccc4c3)c12` [Compound 1049, (R)-5-((4-Methoxy-5-(quinolin-6-yl)pyrrolo[2,1-f][1,2,4]triazin-2-yl)amino)-1-methylpiperidin-2-one]: 4.9 nM.
For the compound `COc1nc(N[C@H]2C[C@](C)(C(=O)NC3(C)COC3)C2)nn2ccc(-c3ccc4ncccc4c3)c12` [Compound 1042, trans-3-((4-Methoxy-5-(quinolin-6-yl)pyrrolo[2,1-f][1,2,4]triazin-2-yl)amino)-1-methyl-N-(3-methyloxetan-3-yl)cyclobutane-1-carboxamide], the IC50 turned out to be 1.2 nM.
Next, `C[C@]1(O)CC[C@H](Nc2nc(OCC(F)F)c3c(-c4ccc5nccnc5c4)ccn3n2)CC1` [Compound 1130, (1r,4r)-4-((4-(2,2-Difluoroethoxy)-5-(quinoxalin-6-yl)pyrrolo[2,1-f][1,2,4]triazin-2-yl)amino)-1-methylcyclohexan-1-ol]: 0.8 nM.
Turning to `COc1nc(N[C@H]2C[C@@](C)(N)C2)nn2ccc(-c3ccc4nnn(C)c4c3)c12` [Compound 202, cis-N^1-(4-Methoxy-5-(1-methyl-1H-benzo[d][1,2,3]triazol-6-yl)pyrrolo[2,1-f][1,2,4]triazin-2-yl)-3-methylcyclobutane-1,3-diamine], the IC50 was found to be 10.9 nM.
Turning to `COc1nc(N[C@@H]2C[C@@H]3CN(C(C)=O)C[C@@H]3C2)nn2ccc(-c3ccc4nnn(C)c4c3)c12` [Compound 228, 1-((3aR,5r,6aS)-5-((4-Methoxy-5-(1-methyl-1H-benzo[d][1,2,3]triazol-6-yl)pyrrolo[2,1-f][1,2,4]triazin-2-yl)amino)hexahydrocyclopenta[c]pyrrol-2(1H)-yl)ethan-1-one], the IC50 amounted to 3.4 nM.
Next, `COc1nc(N[C@H]2C[C@](C)(C(=O)N(C)C)C2)nn2ccc(-c3ccc4nnn(C)c4c3)c12` [Compound 212, trans-3-((4-Methoxy-5-(1-methyl-1H-benzo[d][1,2,3]triazol-6-yl)pyrrolo[2,1-f][1,2,4]triazin-2-yl)amino)-N,N,1-trimethylcyclobutane-1-carboxamide]: 1.4 nM.
